{
  "source": "patent US20170128720A1",
  "about": "“METHODS AND DEVICES FOR MODULATING GENE EXPRESSION AND ENZYME ACTIVITY” (VOMARIS INNOVATIONS, INC, priority 2014, published 2017)",
  "key": {"[1]": {"tested_on": "HUVEC cells", "assay": "EF-induced reorientation of endothelial cells, drug inhibition (orientation index Oi)", "format": "cell-based", "quoted_text": "HUVEC cells were seeded in a trough formed by two parallel (1 cm apart) strips of glass coverslip (No. 1, length of 22 mm) fixed to the base of the dish with silicone grease. Scratch lines were made perpendicular to the long axis of the chamber with a fine sterile needle and used as reference marks for directed cell migration. Cells were incubated for 24-48 hours (37° C., 5% CO2) before a roof coverslip was applied and sealed with silicone grease. The final dimensions of the chamber, through which current was passed, were 22×10×0.2 mm. Agar-salt bridges not less than 15 cm long were used to connect silver/silver-chloride electrodes in beakers of Steinberg's solution (58 mM NaCl, 0.67 mM KCl, 0.44 mM Ca(NO3)2, 1.3 mM MgSO4, 4.6 mM Trizma base, pH 7.8-8.0), to pools of excess culture medium at either side of the chamber. Field strengths were measured directly at the beginning of, the end of and during each experiment. No fluctuations in field strength were observed. […] The same concentration of drug was present during EF (electric field) exposure in a CO2 incubator.\nA series of images was taken with an image analyser immediately before EF exposure and at 4, 8 and 24 hours of EF exposure. Cell orientation was quantified as an orientation index (Oi), which is defined as Oi=cos 2(α), where α is the angle formed by the long axis of a cell with a line drawn perpendicular to the field lines. A cell with its long axis parallel to the vector of the EF will have an Oi of −1, and a cell with its long axis exactly perpendicular to the EF vector will have an Oi of +1. A randomly oriented population of cells will have an average Oi {defined as [Σn cos 2(α)]÷n} of 0. The significance of this two-dimensional orientation distribution against randomness was calculated using Rayleigh's distribution. A long:short axis ratio was calculated for assessment of elongation."}, "[2]": {"tested_on": "HUVEC cells", "assay": "EF-induced elongation of endothelial cells, drug inhibition (long:short axis ratio)", "format": "cell-based", "conditions": "for long:short axis ratio / long axis in EF-treated cells: drug 50 μM", "procedure": "HUVEC cells were seeded in a trough formed by two parallel (1 cm apart) strips of glass coverslip (No. 1, length of 22 mm) fixed to the base of the dish with silicone grease. Scratch lines were made perpendicular to the long axis of the chamber with a fine sterile needle and used as reference marks for directed cell migration. Cells were incubated for 24-48 hours (37° C., 5% CO2) before a roof coverslip was applied and sealed with silicone grease. The final dimensions of the chamber, through which current was passed, were 22×10×0.2 mm. Agar-salt bridges not less than 15 cm long were used to connect silver/silver-chloride electrodes in beakers of Steinberg's solution (58 mM NaCl, 0.67 mM KCl, 0.44 mM Ca(NO3)2, 1.3 mM MgSO4, 4.6 mM Trizma base, pH 7.8-8.0), to pools of excess culture medium at either side of the chamber. Field strengths were measured directly at the beginning of, the end of and during each experiment. No fluctuations in field strength were observed. […] (50 μM), the Rho kinase inhibitor Y27632 (50 μM), both Akt and Rho kinase inhibitors (10 μM each) or latrunculin (50 nM) for 1 hour before EF stimulation. The same concentration of drug was present during EF (electric field) exposure in a CO2 incubator.\nA series of images was taken with an image analyser immediately before EF exposure and at 4, 8 and 24 hours of EF exposure. Cell orientation was quantified as an orientation index (Oi), which is defined as Oi=cos 2(α), where α is the angle formed by the long axis of a cell with a line drawn perpendicular to the field lines. A cell with its long axis parallel to the vector of the EF will have an Oi of −1, and a cell with its long axis exactly perpendicular to the EF vector will have an Oi of +1. […] The significance of this two-dimensional orientation distribution against randomness was calculated using Rayleigh's distribution. A long:short axis ratio was calculated for assessment of elongation.\nHUVEC cells elongated dramatically in an EF. […] We quantified the elongation of the cells using a long:short axis ratio. […]"}, "[3]": {"conditions": "drug 50 μM, 1 hour before and during EF"}},
  "note": "Where two headings read alike, the source gives them in different places.",
  "data": [
    {"molecule": "1-L-6-hydroxymethyl-chiro-inositol 2-[(R)-2-O-methyl-3-O-octadecylcarbonate] [Akt inhibitor]", "values": [
      {"measurement": "reorientation / orientation response of cells in an EF", "setting": "[1]; [3]", "value": "significantly decreased"},
      {"measurement": "long:short axis ratio / long axis in EF-treated cells", "setting": "[2]", "value": "significantly decreased"}
    ]},
    {"molecule": "C/C1=C/C(=O)O[C@@H]2C[C@@H](CC[C@H](C)/C=C\\C=C\\CC1)O[C@@](O)([C@@H]1CSC(=O)N1)C2", "note": "[Latrunculin A]", "values": [
      {"measurement": "orientation response in EF", "setting": "[1]; latrunculin 50 nM", "value": "suppressed the orientation response significantly"},
      {"measurement": "EF-induced elongation response", "setting": "[2]; latrunculin 50 nM", "value": "completely abolished"}
    ]},
    {"molecule": "N#CC(=C(/N)Sc1ccccc1N)/C(C#N)=C(\\N)Sc1ccccc1N", "note": "[U0126]", "values": [
      {"measurement": "orientation index Oi", "setting": "[1]", "value": "0.33±0.03"},
      {"measurement": "reorientation / orientation response of cells in an EF", "setting": "[1]", "value": "decreased the orientation to a similar extent"}
    ]},
    {"molecule": "COc1cc2ncnc(Nc3ccc(Cl)cc3F)c2cc1OC", "note": "[VEGFR inhibitor, 4-[(4′-chloro-2′-fluoro)phenylamino]-6,7-dimethoxyquinazoline]", "values": [
      {"measurement": "reorientation / orientation response of cells in an EF", "setting": "[1]; [3]", "value": "completely abolished"}
    ]},
    {"molecule": "C[C@@H](N)[C@H]1CC[C@H](C(=O)Nc2ccncc2)CC1", "note": "[Y27632]", "values": [
      {"measurement": "orientation index Oi", "setting": "[1]; 10 μM", "value": "0.55±0.05"},
      {"measurement": "orientation response in EF", "setting": "[1]; 10 μM, 20 μM and 50 μM", "value": "decreased the orientation response significantly"},
      {"measurement": "orientation index Oi", "setting": "[1]; 20 μM", "value": "0.45±0.05"},
      {"measurement": "orientation index Oi", "setting": "[1]; 50 μM", "value": "0.24±0.05"},
      {"measurement": "long:short axis ratio / long axis in EF-treated cells", "setting": "[2]", "value": "significantly decreased"}
    ]}
  ]
}
